In the assay the target is T1, human Keap1 Kelch domain (Homo sapiens, UniProt Q14145).
T1 construct: human Keap1 Kelch domain (residue 321-609, UniProt Q14145); made in house; host or cells: Escherichia coli BL21 (DE3) pLysS, pRSET A vector
In words: Fluorescence polarization (FP) competition assay, Cy5-Nrf2 peptide probe. The assay is classed as binding. To be noted: heterologous competition FP; Keap1 Kelch 14 nM, Cy5-Nrf2 probe 3 nM, 4% DMSO; mean ± SEM. How it is done:
The binding affinities between the fluorescent peptide probe Cy5-Nrf2 (SEQ: Cy5-[…]-NH2) and the human Keap1 Kelch domain were determined as Kd values by saturation binding experiments, where increasing concentrations of Keap1 (0-300 nM) were added to a fixed concentration of peptide probe (3 nM). The assay was performed in a 1× HBSTET buffer (10 mM HEPES, 150 mM NaCl, 0.005% Tween20, 3 mM ethylenediaminetetraacetic acid (EDTA), 1 mM TCEP, pH=7.4) using black flat-bottom 384-well plates (Corning Life Sciences, NY), a volume of 30 μL/well, and a final DMSO concentration of 4% or 8%. The assay plate was spun down to ascertain proper mixing and removal of potential air bubbles and incubated for 10-15 min at room temperature before measuring the FP levels on a Safire2 plate reader (Tecan, Mannedorf, Switzerland). The g-factor was adjusted at each experiment so that a series of three blank wells containing probe but no Keap1 Kelch defined the baseline FP value. The Cy5-Nrf2 probe was measured at excitation/emission values of 635:670 nm. The FP values were fitted to the one-site specific binding equation: Y=Bmax×X/(Kd+X), with Bmax being the maximal FP value, X the Keap1 Kelch concentration, and Y the variable FP values. The Kd values were derived from the resulting binding saturation curve as being equal to the Keap1 Kelch concentration, where the curve is half-saturated.
The affinities between nonfluorescent small molecule Keap1 inhibitors and Keap1 Kelch were determined as Ki values in a heterologous competition FP binding assay. This was done by adding increasing concentration of test compound (2-fold serial dilutions, 12 concentrations tested per inhibition curve as duplicates) to a fixed concentration of Keap1 Kelch (14 nM) and the Cy5-Nrf2 peptide probe (3 nM) in the same HBSTET buffer and conditions as described above (final DMSO concentrations were 4%). FP values were fitted to the equation Y=Bottom+(Top−Bottom)/[1+(10^HillSlope×(log IC50−X))], where X is the logarithmic value of compound concentration. Hereby, the IC50 value was obtained, which together with the […] value and probe and Keap1 Kelch concentrations was used to calculate the theoretical competitive inhibition constant, the Ki value. 43 Ki values are shown as mean±SEM (standard error of mean) if based on two or more individual measurements.
(In general: Fluorescence polarisation rises when a labelled molecule tumbles more slowly, as on binding a larger partner.)

This is an account of results in patent publication US20260193170A1 (University of Copenhagen, priority 2022, published 2026).

In general, Ki refers to the equilibrium dissociation constant of an inhibitor or competing ligand from its target.

T1 sequence (Q14145 321-609): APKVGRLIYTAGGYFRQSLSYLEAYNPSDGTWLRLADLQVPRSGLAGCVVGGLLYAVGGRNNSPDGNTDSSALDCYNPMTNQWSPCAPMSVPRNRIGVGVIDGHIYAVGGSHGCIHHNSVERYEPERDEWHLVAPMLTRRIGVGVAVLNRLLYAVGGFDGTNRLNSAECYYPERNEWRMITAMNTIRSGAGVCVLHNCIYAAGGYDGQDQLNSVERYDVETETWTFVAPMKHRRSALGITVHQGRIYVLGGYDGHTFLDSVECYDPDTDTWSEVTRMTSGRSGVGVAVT

Take `Cc1cc2c(cc1C(CC(=O)O)c1ccc3ccc(OCC(=O)NC4CCCCCC4)cc3c1)OCCO2` (centres unmarked) [2u, 3-(7-(2-(Cycloheptylamino)-2-oxoethoxy)naphthalen-2-yl)-3-(7-methyl-2,3-dihydrobenzo[b][1,4]dioxin-6-yl)propanoic acid]: the Ki stood at 0.009 ± 0.003 µM.
As for `Cc1ccc(Cl)cc1C(CC(=O)O)c1ccc2ccc(OCC(=O)NC3CCCCCC3)cc2c1` (centres unmarked) [2v, 3-(5-chloro-2-methylphenyl)-3-(7-(2-(cycloheptylamino)-2-oxoethoxy)naphthalen-2-yl)propanoic acid], the figure is 0.097 ± 0.013 µM; as for `Cc1cc2c(cc1C(CC(=O)O)c1ccc3ccc(OCC(=O)NC4CCCCCC4)cc3c1)OC(F)(F)O2` (centres unmarked) [2w, 3-(7-(2-(cycloheptylamino)-2-oxoethoxy)naphthalen-2-yl)-3-(2,2-difluoro-6-methylbenzo[d][1,3]dioxol-5-yl)propanoic acid], 0.014 ± 0.002 µM; as for `O=C(O)CC(c1ccc2ccc(OCC(=O)NC3CCCCCC3)cc2c1)c1cc2c(cc1Cl)OCO2` (centres unmarked) [2z, 3-(6-chlorobenzo[d][1,3]dioxol-5-yl)-3-(7-(2-(cycloheptylamino)-2-oxoethoxy)naphthalen-2-yl)propanoic acid], 0.009 ± 0.002 µM.
Regarding `COc1ccc(C(CC(=O)O)c2ccc3ccc(OCC(=O)NC4CCCCC4)cc3c2)cc1` (centres unmarked) [3a, 3-(7-(2-(cyclohexylamino)-2-oxoethoxy)naphthalen-2-yl)-3-(4-methoxyphenyl)propanoic acid], the inhibition constant (Ki) came to 0.07 ± 0.003 µM.
`COc1ccc(C(CC(=O)O)c2ccc3ccc(OCC(=O)NC4CCCCC4)cc3c2)c(C)c1` (centres unmarked) [3b, 3-(7-(2-(cyclohexylamino)-2-oxoethoxy)naphthalen-2-yl)-3-(4-methoxy-2-methylphenyl)propanoic acid]: the Ki is 0.054 µM.
For the compound `COc1cc(C)c(C(CC(=O)O)c2ccc3ccc(OCC(=O)NC4CCCCC4)cc3c2)c(C)c1` (centres unmarked) [3c, 3-(7-(2-(cyclohexylamino)-2-oxoethoxy)naphthalen-2-yl)-3-(4-methoxy-2,6-dimethylphenyl)propanoic acid], the Ki stood at 0.168 ± 0.003 µM.
For the compound `O=C(O)CC(c1cccc(Cl)c1)c1ccc2ccc(OCC(=O)NC3CCCCC3)cc2c1` (centres unmarked) [3d, 3-(3-chlorophenyl)-3-(7-(2-(cyclohexylamino)-2-oxoethoxy)naphthalen-2-yl)propanoic acid], the Ki was found to be 0.47 ± 0.047 µM.
Under `Cc1c(Cl)cccc1C(CC(=O)O)c1ccc2ccc(OCC(=O)NC3CCCCC3)cc2c1` (centres unmarked) [3e, 3-(3-chloro-2-methylphenyl)-3-(7-(2-(cyclohexylamino)-2-oxoethoxy)naphthalen-2-yl)propanoic acid] stands 0.066 ± 0.006 µM; under `O=C(O)CC(c1ccc2c(c1)OCO2)c1ccc2ccc(OCC(=O)NC3CCCCC3)cc2c1` (centres unmarked) [3f, 3-(benzo[d][1,3]dioxol-5-yl)-3-(7-(2-(cyclohexylamino)-2-oxoethoxy)naphthalen-2-yl)propanoic acid], 0.059 ± 0.006 µM; under `Cc1cc2c(cc1C(CC(=O)O)c1ccc3ccc(OCC(=O)NC4CCCCC4)cc3c1)OCO2` (centres unmarked) [3g, 3-(7-(2-(cyclohexylamino)-2-oxoethoxy)naphthalen-2-yl)-3-(6-methylbenzo[d][1,3]dioxol-5-yl)propanoic acid], 0.018 ± 0.006 µM.
On to `CCn1nnc2c(C)c(C(CC(=O)O)c3ccc4ccc(OCC(=O)NC5CCCCC5)cc4c3)ccc21` (centres unmarked) [3h, 3-(7-(2-(cyclohexylamino)-2-oxoethoxy)naphthalen-2-yl)-3-(1-ethyl-4-methyl-1H-benzo[d][1,2,3]triazol-5-yl)propanoic acid], for which the Ki was 0.0048 ± 0.001 µM.
Take `O=C(O)CC(c1ccc2c(c1)CCO2)c1ccc2ccc(OCC(=O)NC3CCCCC3)cc2c1` (centres unmarked) [3i, 3-(7-(2-(cyclohexylamino)-2-oxoethoxy)naphthalen-2-yl)-3-(2,3-dihydrobenzofuran-5-yl)propanoic acid]: the inhibition constant Ki is 0.082 ± 0.008 µM.
Under `CC1(C)Oc2ccc(C(CC(=O)O)c3ccc4ccc(OCC(=O)NC5CCCCC5)cc4c3)cc2O1` (centres unmarked) [3j, 3-(7-(2-(cyclohexylamino)-2-oxoethoxy)naphthalen-2-yl)-3-(2,2-dimethylbenzo[d][1,3]dioxol-5-yl)propanoic acid] stands 0.14 ± 0.011 µM.
As to `O=C(O)CC(c1ccc2c(c1)OC(F)(F)O2)c1ccc2ccc(OCC(=O)NC3CCCCC3)cc2c1` (centres unmarked) [3k, 3-(7-(2-(cyclohexylamino)-2-oxoethoxy)naphthalen-2-yl)-3-(2,2-difluorobenzo[d][1,3]dioxol-5-yl)propanoic acid], the Ki was 0.052 ± 0.003 µM.
Regarding `O=C(O)CC(c1ccc2c(c1)OCCO2)c1ccc2ccc(OCC(=O)NC3CCCCC3)cc2c1` (centres unmarked) [3l, 3-(7-(2-(cyclohexylamino)-2-oxoethoxy)naphthalen-2-yl)-3-(2,3-dihydrobenzo[b][1,4]dioxin-6-yl)propanoic acid], the inhibitory constant (Ki) worked out at 0.029 ± 0.001 µM.
As to `COc1ccc(C)c(C(CC(=O)O)c2ccc3ccc(OCC(=O)NC4CCCCC4)cc3c2)c1` (centres unmarked) [3m, 3-(7-(2-(cyclohexylamino)-2-oxoethoxy)naphthalen-2-yl)-3-(5-methoxy-2-methylphenyl)propanoic acid], the Ki amounted to 0.15 ± 0.014 µM.
For `Cc1nc2[nH]ccc2cc1C(CC(=O)O)c1ccc2ccc(OCC(=O)NC3CCCCC3)cc2c1` (centres unmarked) [3n, 3-(7-(2-(cyclohexylamino)-2-oxoethoxy)naphthalen-2-yl)-3-(6-methyl-1H-pyrrolo[2,3-b]pyridin-5-yl)propanoic acid], the Ki came to 0.129 ± 0.013 µM.
In the case of `O=C(O)CC(c1ccc2ccc(OCC(=O)NC3CCCCC3)cc2c1)c1ccc2occc2c1` (centres unmarked) [3o, 3-(Benzofuran-5-yl)-3-(7-(2-(cyclohexylamino)-2-oxoethoxy)naphthalen-2-yl)propanoic acid], the Ki turned out to be 0.068 ± 0.012 µM.
Turning to `Cc1ccc(Cl)cc1C(CC(=O)O)c1ccc2ccc(OCC(=O)NC3CCCCC3)cc2c1` (centres unmarked) [3p, 3-(5-Chloro-2-methylphenyl)-3-(7-(2-(cyclohexylamino)-2-oxoethoxy)naphthalen-2-yl)propanoic acid], the inhibitory constant (Ki) is 0.234 ± 0.04 µM.
On to `Cc1cc2c(cc1C(CC(=O)O)c1ccc3ccc(OCC(=O)NC4CCCCC4)cc3c1)OCCO2` (centres unmarked) [3q, 3-(7-(2-(cyclohexylamino)-2-oxoethoxy)naphthalen-2-yl)-3-(7-methyl-2,3-dihydrobenzo[b][1,4]dioxin-6-yl)propanoic acid], for which the inhibition constant (Ki) amounted to 0.015 ± 0.001 µM.
Under `Cc1cc2c(cc1C(CC(=O)O)c1ccc3ccc(OCC(=O)NC4CCCCC4)cc3c1)OC(F)(F)O2` (centres unmarked) [3r] stands 0.007 ± 0.001 µM; under `Cc1cc2occc2cc1C(CC(=O)O)c1ccc2ccc(OCC(=O)NC3CCCCC3)cc2c1` (centres unmarked) [3s, 3-(7-(2-(cyclohexylamino)-2-oxoethoxy)naphthalen-2-yl)-3-(6-methylbenzofuran-5-yl)propanoic acid], 0.024 ± 0.001 µM.
Turning to `Cc1cc2c(cc1C(CC(=O)O)c1ccc3ccc(OCC(=O)NC4CCCCC4)cc3c1)CCO2` (centres unmarked) [3t, 3-(7-(2-(cyclohexylamino)-2-oxoethoxy)naphthalen-2-yl)-3-(6-methyl-2,3-dihydrobenzofuran-5-yl)propanoic acid], the inhibition constant Ki was 0.032 ± 0.001 µM.
Regarding `O=C(O)CC(c1ccc2c(c1)OCO2)c1ccc2ccc(OCC(=O)NC3C=CCCC3)cc2c1` (centres unmarked) [4a, 3-(Benzo[d][1,3]dioxol-5-yl)-3-(7-(2-(cyclohex-2-en-1-ylamino)-2-oxoethoxy)naphthalen-2-yl)propanoic acid], the inhibition constant (Ki) is 0.025 ± 0.002 µM.
On to `Cc1cc2c(cc1C(CC(=O)O)c1ccc3ccc(OCC(=O)NC4C=CCCC4)cc3c1)OCO2` (centres unmarked) [4b, 3-(7-(2-(Cyclohex-2-en-1-ylamino)-2-oxoethoxy)naphthalen-2-yl)-3-(6-methylbenzo[d][1,3]dioxol-5-yl)propanoic acid], for which the Ki was determined as 0.004 ± 0.001 µM.
Consider `Cc1c(Cl)cccc1C(CC(=O)O)c1ccc2ccc(OCC(=O)NC3C=CCCC3)cc2c1` (centres unmarked) [4c, 3-(3-Chloro-2-methylphenyl)-3-(7-(2-(cyclohex-2-en-1-ylamino)-2-oxoethoxy)naphthalen-2-yl)propanoic acid], for which the inhibition constant (Ki) is 0.038 ± 0.006 µM.
Under `O=C(O)CC(c1ccc2c(c1)OCCO2)c1ccc2ccc(OCC(=O)NC3C=CCCC3)cc2c1` (centres unmarked) [4d, 3-(7-(2-(cyclohex-2-en-1-ylamino)-2-oxoethoxy)naphthalen-2-yl)-3-(2,3-dihydrobenzo[b][1,4]dioxin-6-yl)propanoic acid] stands 0.02 ± 0.002 µM; under `O=C(O)CC(c1ccc2c(c1)CCO2)c1ccc2ccc(OCC(=O)NC3C=CCCC3)cc2c1` (centres unmarked) [4e, 3-(7-(2-(Cyclohex-2-en-1-ylamino)-2-oxoethoxy)naphthalen-2-yl)-3-(2,3-dihydrobenzofuran-5-yl)propanoic acid], 0.027 ± 0.004 µM.
